In patent US7071293B1, “Alpha helical peptides with broad spectrum antimicrobial activity that are insensitive to salt” (priority 1999, dated 2006):
≈ marks a conversion by molar mass, not a printed value. Like-named read-outs stand apart in the source and are kept apart here. Ends that are not written are not given here.

Legend:
MRSA ATCC 33591 = conditions: ATCC 33591, pH 7.4
E. coli ML-35p = conditions: Table 13; for MIC E. coli [NaCl] High: high salt underlay (10 mM sodium phosphate buffer +100 mM NaCl, pH 7.4); for MIC E. coli [NaCl] Low: low salt underlay (10 mM sodium phosphate buffer, pH 7.4)
P. aeruginosa MR 3007 = conditions: MR 3007, pH 7.4
P. aeruginosa PAO1 [1] = test: Relative time for killing (luminescence measured at intervals); assay type: cell-based; conditions: peptide at ten times its EC50 (SMAP29X-18D 15.7 X, SMAP29X-14A 17.4 X), 25 mM ionic strength
E. coli DH5α = conditions: for EC50: DH5α; for EC50 E. coli DH5α: ionic strength 25 mM, avg ± sem
P. aeruginosa PAO1 [2] = conditions: avg ± sem
S. aureus 930918-3 = conditions: 930918-3, pH 7.4
[3] = tested on: vancomycin and methicillin-resistant Gram-positives
Staphylococcus aureus = conditions: Staphylococcus aureus, cited from earlier work
Mycoplasma hominis = conditions: cited from earlier work
Mycoplasma pneumoniae = conditions: cited from earlier work
[4] = E.f 142-1498-1 (Enterococcus fecaelis), Van A (vancomycin-resistant)
[5] = E.f 142-6873-3 (Enterococcus fecaelis), Van B (vancomycin-resistant)

| Compound | MIC MRSA [NaCl] High (MRSA ATCC 33591) [µg/mL] | MIC MRSA [NaCl] Low (MRSA ATCC 33591) [µg/mL] | MIC E. coli [NaCl] High (E. coli ML-35p) [µg/mL] | MIC E. coli [NaCl] Low (E. coli ML-35p) [µg/mL] | MIC P. aeruginosa [NaCl] High (P. aeruginosa MR 3007) [µg/mL] | MIC P. aeruginosa [NaCl] Low (P. aeruginosa MR 3007) [µg/mL] | Half-time of Killing (min. avg. ± sem) (P. aeruginosa PAO1 [1]) [min] | EC50 (E. coli DH5α) [nM] | EC50 E. coli DH5α (E. coli DH5α) [µg/mL] | EC50 P. aeruginosa PAO1 (P. aeruginosa PAO1 [2]; ionic strength 25 mM) [µg/mL] | EC50 P. aeruginosa PAO1 (P. aeruginosa PAO1 [2]; ionic strength 175 mM) [µg/mL] | MIC S. aureus [NaCl] High (S. aureus 930918-3) [µg/mL] | MIC S. aureus [NaCl] Low (S. aureus 930918-3) [µg/mL] | also measured |
| --- | --- | --- | --- | --- | --- | --- | --- | --- | --- | --- | --- | --- | --- | --- |
| GLRKRLRKFRNKIKEKLKKIGQKIQGLLPKLAPRTDY [CAP 18] | 6.1 | 8.2 | 0.4 | 0.2 | 1.6 | 0.2 | 4.0 ± 1.4 | 150 ± 20 | 0.69 ± 0.08 | 0.98 ± 0.24 | 0.50 ± 0.10 | 2.8 | 1.8 | – |
| KRLRKFRNKIKEKLKKIG [CAP18-18] | >250 | 14.9 | 1.5 | 2.8 | 3.2 | 2.1 | 19.5 ± 8.2 | 200 ± 30 | 0.47 ± 0.06 | 1.05 ± 0.37 | 1.59 ± 0.29 | 29.0 | 9.7 | – |
| GLRKRLRKFRNKIKEKLKKIG [CAP18-21a] | >250 | 19.4 | 0.4 | 2.3 | 0.9 | 0.7 | 9.2 ± 3.4 | 190 ± 10 | 0.48 ± 0.03 | 0.58 ± 0.09 | 0.54 ± 0.10 | 2.2 | 1.8 | – |
| LRRIIRKIIHIIKK-NH2 [SMAP29X-14A] | >79.1 | 7.6 | 0.9 | 2.9 | 2.7 | 2.0 | 20.9 | – | – | 0.23 ± 0.03 | 1.59 ± 0.22 | 1.9 | 1.1 | MIC [3, 4]: >64 µg/mL; MIC [3, 5]: >64 µg/mL |
| CCC[C@@H]1C[C@@H](C(=O)N[C@@H]([C@H]2O[C@H](SC)[C@H](O)[C@@H](O)[C@H]2O)[C@@H](C)O)N(C)C1 [LINCOMYCIN, lincomycin] | – | – | – | – | – | – | – | – | – | – | – | – | – | Range (Staphylococcus aureus; MIC range): 0.5–512; MIC50 (Staphylococcus aureus): 1 µg/mL (≈ 2.46 µM); MIC90 (Staphylococcus aureus): 1 µg/mL (≈ 2.46 µM); Range (Mycoplasma hominis; MIC range): 0.5–16; MIC50 (Mycoplasma hominis): 2 µg/mL (≈ 4.92 µM); MIC90 (Mycoplasma hominis): 4 µg/mL (≈ 9.84 µM); Range (Mycoplasma pneumoniae; MIC range): 2–32; MIC50 (Mycoplasma pneumoniae): 8 µg/mL (≈ 19.7 µM); MIC90 (Mycoplasma pneumoniae): 32 µg/mL (≈ 78.7 µM) |
| KNLRRIIRKIIHIIKKYG [SMAP29X-18D] | 0.8 | 8.7 | 0.5 | 0.8 | 0.5 | 1.1 | 2.9 | – | – | 0.29 ± 0.01 | 0.58 ± 0.05 | 1.4 | 2.0 | MIC [3, 4]: 32 µg/mL; MIC [3, 5]: 64 µg/mL |
| LRKFRNKIKEKLKKIGQKI [CAP18-19] | >79.1 | 4.5 | 18.2 | 0.4 | 26.7 | 1.0 | 8.0 ± 1.6 | 960 ± 130 | 2.27 ± 0.30 | 1.65 ± 0.27 | 3.06 ± 0.36 | >79.1 | 6.0 | – |
| RKRLRKFRNKIKEKLKKIGQKI [CAP18-22] | >79.1 | 8.1 | 1.7 | 0.1 | 7.6 | 0.7 | 9.8 ± 2.5 | 520 ± 160 | 1.47 ± 0.44 | 1.38 ± 0.49 | 0.88 ± 0.12 | >79.1 | 7.9 | – |
